{
  "source": "paper PMC12192727",
  "about": "“Strategies to Develop Na,K-ATPase-α4 Inhibitors as Male Contraceptives” (International Journal of Molecular Sciences, 2025)",
  "key": {"physchem": {"assay": "physchem", "type": "physicochemical", "details": "PBS pH 7.4", "method": "The stock solutions of 11 and 45 were prepared in DMSO at a concentration of 30 mM, and the stock solution of the control compound was prepared in DMSO at a concentration of 30 mM. Progesterone was used as a positive control in the assay. An amount of 10 µL of stock solution of each compound was placed in order into their proper 96-well rack, followed by adding 990 µL of PBS at pH 7.4 into each vial of the capless Solubility Sample plate. This study was performed in duplicate. One stir stick was added to each vial and then sealed using a molded PTDE/SIL 96-Well Plate Cover (Pharmaron, Waltman, MA, USA). The Solubility Sample plate was transferred to the Thermomixer Comfort plate shaker and incubated at RT for 2 h with shaking at 1100 rpm. After 2 h of incubation, stir sticks were removed using a big magnet, and all samples from the Solubility Sample plate were transferred into the filter plate. All the samples were filtered using a vacuum manifold. The filtered samples were diluted with methanol. The soluble fraction (filtrate) was then analyzed by LC-MS/MS, and the compound concentration was determined using 0.3 μM standard solutions prepared from DMSO stocks. The experimental details are reported in the Supporting Information (Table S1). […]\nTable S1 . Solubility Results of Test C ompound and Control C ompound in […]\nCompound ID Solubility (µM)\nPreparation of Stock Solutions: The stock solutions of test compounds were prepared in DMSO at the concentration of 30 mM, and the stock solution of control compound was prepared in DMSO at the concentration of 30 mM.\nProgesterone was used as positive control in the assay.\nSolubility Determination: 10 µL stock solution of each compound was placed in order into their proper 96-well rack, followed by adding 990 µL of PBS at pH 7.4 into each vial of the cap-less Solubility Sample plate. This study was performed in duplicate. One stir stick was added to each vial and then vials were sealed using a molded PTDE/SIL 96-Well Plate Cover. The Solubility Sample plate was transferred to the Thermomixer Comfort plate shaker and incubated at RT for 2 hours with shaking at 1100 rpm. After 2 hours incubation, stir sticks were removed using a big magnet and all samples from the Solubility Sample plate were transferred into the filter plate. All the samples were filtered by using the Vacuum Manifold. The filtered samples were diluted with methanol. The dilution factor might be changed according to the solubility value and the LC/MS signal response. To prepare 0.3 µM Standards (STD), 30 mM DMSO compound stock solutions were diluted with DMSO to 300 µM and then diluted with methanol to obtain 0.3 µM STDs. Samples were analyzed by LC-MS/MS. All calculations were carried out using Microsoft Excel. The solution filtered was analyzed and quantified against a standard of known concentration in DMSO using LC coupled with Mass spectral peak identification and quantitation. The solubility values of the test compounds were calculated as follow DF means the dilution factor\n1. Chromatographic conditions\nApparatus: Triple QuadTM 5500 instrument from AB Inc (Canada) with an ESI interface Column: XSelect Hss T3 2.5µ (2.1×50 mm) Column XP coupled with preguard column Mobile phase: 0.1% formic acid in acetonitrile (A) and 0.1% formic acid in water (B) […]"}, "NKAα1": {"target": "T1, NKAα1 (Rattus norvegicus, UniProt P06685)", "T1 construct": "made in house; host or cells: Sf9 insect cells (baculovirus infection), cell homogenates", "assay": "Na,K-ATPase activity assay, α1β1 expressed in Sf9 insect cells", "type": "biochemical", "details": "read-out: NKA Isoform Specificity (IC50 M) NKAα1", "method": "The NKA α1 and α4 isoforms were expressed in Sf9 insect cells as previously described. Briefly, cells were cultured in suspension at 27 °C in Grace’s medium (JRH Biosciences, Lenexa, KS, USA) with 3.3 g/L of lactalbumin hydrolysate and 3.3 g/L of yeastolate and supplemented with 10% (v/v) fetal bovine serum, 100 units/mL of penicillin, 100 μg/mL of streptomycin, and 0.25 μg/mL of fungizone. For infections, cells were placed on 150 mm Petri dishes and infected with baculoviruses coding for the NKA α1β1 and α4β1 isozymes. Three days after infection, cells were scraped from the culture plates, centrifuged at 1500× g for 10 min, and washed twice in 10 mM imidazole hydrochloride (pH 7.5) and 1 mM EGTA (suspension buffer). Cells were then placed in a suspension buffer plus the addition of 0.32 M sucrose and stored at −20 °C or directly used for assays.\nThe Na,K-ATPase activity of insect cell homogenates was determined by measuring the initial rate of release of ^32Pi from γ[^32P]-ATP as described. […] Enzymatic activity was determined as the difference in ATP hydrolysis in the absence and presence of 1 mM ouabain.\nFigure 6 Selectivity of 13 and 45 on NKAα4 over the NKAα1 isoform. […] The hydrolysis of ATP in the presence of saturating concentrations of Na^+, K^+, and Mg^2+ was measured using γ[^32P]-ATP. […]"}, "in vitro": {"assay": "in vitro", "details": "dog, MDCK, MDCK cells"}, "human hepatocytes": {"tested_on": "human hepatocytes", "assay": "Metabolic stability in human hepatocytes", "type": "in vitro ADME", "method": "(§1) The in vitro metabolic half-life (t1/2) is calculated using the slope of the log−linear regression from the percentage of the parent compound remaining versus the time relationship (κ). The experimental details are reported in the Supporting Information (Tables S6 and S7)."}, "[1]": {"assay": "Metabolic stability in human hepatocytes", "type": "in vitro ADME", "details": "human hepatocytes", "method": "as §1"}, "hERG channel": {"target": "hERG channel (Homo sapiens, UniProt Q12809)", "sequence (Q12809 whole entry)": "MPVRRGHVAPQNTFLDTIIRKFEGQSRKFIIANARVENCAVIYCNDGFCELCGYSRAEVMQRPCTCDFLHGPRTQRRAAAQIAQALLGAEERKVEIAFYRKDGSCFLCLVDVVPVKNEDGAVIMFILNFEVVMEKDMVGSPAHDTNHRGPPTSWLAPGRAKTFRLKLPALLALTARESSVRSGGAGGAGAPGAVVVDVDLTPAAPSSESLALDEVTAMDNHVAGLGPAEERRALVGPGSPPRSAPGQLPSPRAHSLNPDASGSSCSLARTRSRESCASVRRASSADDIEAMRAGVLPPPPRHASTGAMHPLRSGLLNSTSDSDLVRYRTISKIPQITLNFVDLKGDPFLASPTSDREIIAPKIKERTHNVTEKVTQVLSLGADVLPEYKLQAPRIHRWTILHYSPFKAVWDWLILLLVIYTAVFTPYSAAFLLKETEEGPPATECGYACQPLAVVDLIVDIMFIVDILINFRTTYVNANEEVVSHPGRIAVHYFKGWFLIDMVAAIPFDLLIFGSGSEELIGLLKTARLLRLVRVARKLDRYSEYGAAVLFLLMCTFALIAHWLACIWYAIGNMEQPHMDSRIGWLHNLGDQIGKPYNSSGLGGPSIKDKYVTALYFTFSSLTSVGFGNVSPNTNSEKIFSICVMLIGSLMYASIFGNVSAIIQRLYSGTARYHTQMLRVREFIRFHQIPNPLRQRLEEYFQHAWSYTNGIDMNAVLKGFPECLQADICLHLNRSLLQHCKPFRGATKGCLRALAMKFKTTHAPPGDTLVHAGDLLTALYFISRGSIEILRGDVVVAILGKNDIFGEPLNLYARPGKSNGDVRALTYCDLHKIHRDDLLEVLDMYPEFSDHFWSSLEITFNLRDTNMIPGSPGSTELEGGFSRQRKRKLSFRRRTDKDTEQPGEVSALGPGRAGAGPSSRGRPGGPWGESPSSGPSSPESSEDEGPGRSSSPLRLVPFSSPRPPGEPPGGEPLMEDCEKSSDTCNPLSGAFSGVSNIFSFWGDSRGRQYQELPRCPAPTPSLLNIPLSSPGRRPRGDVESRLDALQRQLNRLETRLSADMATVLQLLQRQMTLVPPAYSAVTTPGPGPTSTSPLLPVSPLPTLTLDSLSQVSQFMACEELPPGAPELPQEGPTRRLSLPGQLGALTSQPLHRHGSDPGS"}, "[2]": {"details": "aqueous buffer, kinetic from dmso stock, read-out: Solubility"}},
  "note": "Read-outs that look alike come from different tables or passages of the source.",
  "data": [
    {"smiles": "C[C@]12CC[C@H]3[C@@H](CC=C4C[C@@H](O)CC[C@@]43C)[C@@H]1CC[C@@H]2c1cn(Cc2ccccc2)nn1", "note": "[Compound 13, (3S,8S,9S,10R,13S,14S,17S)-17-(1-Benzyl-1H-1,2,3-triazol-4-yl)-10,13-dimethyl-2,3,4,7,8,9,10,11,12,13,14,15,16,17-tetradecahydro-1H-cyclopenta[a]phenanthren-3-ol]", "values": [
      {"measurement": "Solubility", "setting": "physchem", "result": "poor"},
      {"measurement": "Solubility", "setting": "physchem; [2]", "result": 0.3, "unit": "µM"},
      {"measurement": "IC50", "setting": "NKAα1", "result": "> 100", "unit": "µM"},
      {"measurement": "recovery", "setting": "in vitro; Recovery (%) AP-BL", "result": 70.2, "unit": "%"},
      {"measurement": "recovery", "setting": "in vitro; Recovery (%) BL-AP", "result": 88.1, "unit": "%"}
    ]},
    {"smiles": "CC12CCC(=O)C=C1CCCC2n1cc(-c2ccccc2)nn1", "note": "(stereo not drawn) [Compound 45, 4a-Methyl-5-(4-phenyl-1H-1,2,3-triazol-1-yl)-4,4a,5,6,7,8-hexahydronaphthalen-2(3H)-one]", "values": [
      {"measurement": "Solubility", "setting": "physchem", "result": "good"},
      {"measurement": "Solubility", "setting": "physchem; [2]", "result": 256, "unit": "µM"},
      {"measurement": "Remaining Percentage (%)", "setting": "human hepatocytes; human boiled hepatocytes, 0 min", "result": 100.00, "unit": "%"},
      {"measurement": "Remaining Percentage (%)", "setting": "human hepatocytes; human boiled hepatocytes, 15 min", "result": 105.47, "unit": "%"},
      {"measurement": "Remaining Percentage (%)", "setting": "human hepatocytes; human boiled hepatocytes, 30 min", "result": 106.55, "unit": "%"},
      {"measurement": "Remaining Percentage (%)", "setting": "human hepatocytes; human boiled hepatocytes, 60 min", "result": 108.22, "unit": "%"},
      {"measurement": "Remaining Percentage (%)", "setting": "human hepatocytes; human boiled hepatocytes, 90 min", "result": 105.29, "unit": "%"},
      {"measurement": "Remaining Percentage (%)", "setting": "human hepatocytes; human boiled hepatocytes, 120 min", "result": 107.99, "unit": "%"},
      {"measurement": "Hepatic Extraction Ratio (E)", "setting": "human hepatocytes; human hepatocytes", "result": 0.82},
      {"measurement": "Predicted hepatic CL", "setting": "human hepatocytes; human hepatocytes", "result": 16.89, "unit": "mL/min/kg"},
      {"measurement": "Remaining Percentage (%)", "setting": "human hepatocytes; human hepatocytes, 0 min", "result": 100.00, "unit": "%"},
      {"measurement": "Remaining Percentage (%)", "setting": "human hepatocytes; human hepatocytes, 15 min", "result": 83.47, "unit": "%"},
      {"measurement": "Remaining Percentage (%)", "setting": "human hepatocytes; human hepatocytes, 30 min", "result": 64.22, "unit": "%"},
      {"measurement": "Remaining Percentage (%)", "setting": "human hepatocytes; human hepatocytes, 60 min", "result": 39.26, "unit": "%"},
      {"measurement": "Remaining Percentage (%)", "setting": "human hepatocytes; human hepatocytes, 90 min", "result": 22.24, "unit": "%"},
      {"measurement": "Remaining Percentage (%)", "setting": "human hepatocytes; human hepatocytes, 120 min", "result": 11.51, "unit": "%"},
      {"measurement": "Metabolic Stability in Hepatocytes (60 min), compound remaining", "setting": "human hepatocytes; human, 60 min", "result": 39, "unit": "%"},
      {"measurement": "hepatocyte CLint at 1 μM", "setting": "[1]; read-out: In vitro Clint", "result": 36, "unit": "µL/min/1e6 cells"},
      {"measurement": "CLint scaled at 1 µM", "setting": "[1]; read-out: Scale-up Clint", "result": 91.7, "unit": "mL/min/kg"},
      {"measurement": "half-life at 1 µM", "setting": "[1]; human, hepatocytes, read-out: In vitro T1/2", "result": 38.5, "unit": "min"},
      {"measurement": "hERG IC50", "setting": "hERG channel", "result": "weak inhibitor"},
      {"measurement": "IC50", "setting": "NKAα1", "result": "> 100", "unit": "µM"}
    ]}
  ]
}
